Where a name gives a salt, the structure may show the parent alone.
Experiments:
Ras-related GTPases = assay: Confirmatory dose response assays on eight Ras-related GTPases; type: binding; details: for activity against the GTPases in confirmatory dose response assays (words): 10 nM to 100 µM
Procedure: (§1) For multiplex analyses of small GTPases, 4 μm diameter glutathione-beads (GSH-beads) distinguished by seven different intensities of red fluorescence were used according to our previously described protocols. The GST-GTPases included the following eight Ras-related small GTPases: Rab2 wt, Rab7 wt, Cdc42 wt, Cdc42Q61L activating mutant, H-Ras wt, H-RasG12V, Rac1 wt and Rac1Q61L activating mutant. Briefly, Prestwick Chemical Library® compounds were tested at 10 μM compound and 1% DMSO final concentrations. After a 10 min pre-incubation with the compound BODIPY- FL-GTP (100 nM final) was added to each well and bead associated fluorescence was measured. Sample analysis was conducted with a HyperCyt® high throughput flow cytometry platform. Flow cytometric light scatter at 488 nm and fluorescence emission at 530 +/− 20 nm (FL1) and 665 +/− 10 nm (FL8) were collected on a Cyan ADP flow cytometer (Beckman Coulter, Fullerton, CA). IDLQuery software was used to determine the compound activity in each well. Gating based on forward scatter (FS) and side scatter (SS) parameters was used to identify singlet bead populations. Gating based on FL8 emission distinguishes the beads coated with different proteins, and the median FL1 fluorescence per bead population were calculated. A compound was considered a “potential active” if the change in BODIPY-FL-GTP binding differed greater than 20% from that measured in DMSO treated controls.
(§2) Test compounds identified for follow-up after the primary screen were tested at dilutions ranging from 10 nM to 100 μM final concentration against individual GTPases in multiplex and single-plex assays. Compounds tested in dose response assays were serially diluted 1:3 a total of eight times from a starting concentration of 10 mM giving a 9-point dilution series in DMSO.
(§3) bConfirmatory screens entailed dose response assays conducted in a multiplex format with eight GTPases tested as for primary screen. BODIPY-GTP-binding activity was
(§4) measured in the presence of 10 nM to 100 µM of each of 11 test compounds (4 primary screen hits and 7 additional NSAIDs considered to have chemical similarity to GTPase
(§5) active compounds). GST-GFP coated beads served as a control to detect non-specific dissociation or denaturation caused by compound addition–none of the tested NSAIDs had
(§6) any effect on bead-GST-protein binding. EC50 values were determined using Prism to determine dose response fits as shown in Figure 1 of main text; fits have R2 > 0.9. Active
(§7) compounds based on same definition used as in primary screena. […]
(§8) ‡A well-characterized selective Cdc42 inhibitor served as a positive control.

[1] = tested on: Rab2 wt, Rab7 wt, Cdc42 wt, Cdc42Q61L, H-Ras wt, H-RasG12V, Rac1 wt and Rac1Q61L; assay: Primary multiplex screen, BODIPY-FL-GTP binding on bead-bound GTPases (flow cytometry); details: for Primary Screen Hit: single dose 10 µM, change in BODIPY-GTP binding on any one GTPase; for primary screen outcome: 10 μM compound
[2] = tested on: Rac1 membrane localization; assay: Rac1 immunolocalization, OvCa433 cells; type: cell-based, human; details: for Rac1 membrane localization: 300 μM; for Rac PM Localiz.: immunofluorescence quantified using ImageJ
H-Ras wt = H-Ras wt (Homo sapiens, UniProt P01112); assay: Dose response, BODIPY-GTP binding; details: 10 nM to 100 µM
Procedure: as §1, §2, §3, §4, §5, §6, §7

H-RasG12V = H-RasG12V (Homo sapiens, UniProt P01112, G12V); assay: Dose response, BODIPY-GTP binding; details: 10 nM to 100 µM
Procedure: as §1, §2, §3, §4, §5, §6, §7, §8

[3] = tested on: Tiam1 membrane localization; assay: Tiam1 immunolocalization, OvCa433 cells; type: cell-based, human
Procedure: OvCa433 were plated on coverslips, treated with 300 μM NSAIDs for 1 h, fixed with 3% paraformaldehyde and immunostained for Rac1 or Tiam1. Actin was visualized with rhodamine phalloidin from Invitrogen (F432). Cells were imaged on a Zeiss LSM510 using a 63x objective and quantified using Image J.
Rac1 and Tiam1 antibodies were confirmed in our hands to recognize single protein species of the predicted molecular weight by immunoblot.

Rab2 = Rab2 (Homo sapiens, UniProt P61019); assay: Dose response, BODIPY-GTP binding; details: 10 nM to 100 µM
Sequence of Rab2 (P61019 whole entry, species assumed): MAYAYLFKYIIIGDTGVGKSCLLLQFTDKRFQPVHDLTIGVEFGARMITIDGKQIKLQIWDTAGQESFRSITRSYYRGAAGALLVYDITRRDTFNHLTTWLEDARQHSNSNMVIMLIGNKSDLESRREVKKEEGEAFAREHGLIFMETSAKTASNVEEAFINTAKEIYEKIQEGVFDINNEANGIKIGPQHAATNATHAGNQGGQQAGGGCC

Rab7 = Rab7 (Homo sapiens, UniProt P51149); assay: Dose response, BODIPY-GTP binding; details: 10 nM to 100 µM
Sequence of Rab7 (P51149 whole entry, species assumed): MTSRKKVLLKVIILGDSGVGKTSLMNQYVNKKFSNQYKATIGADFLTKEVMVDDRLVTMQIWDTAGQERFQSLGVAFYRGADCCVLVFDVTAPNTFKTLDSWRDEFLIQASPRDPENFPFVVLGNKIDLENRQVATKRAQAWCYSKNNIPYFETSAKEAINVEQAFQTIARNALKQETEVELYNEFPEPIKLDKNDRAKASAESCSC

[4] = tested on: Rac1 and Tiam1 protein levels; assay: Immunoblot of protein levels; type: cell-based, human
Procedure: Cells were stimulated with EGF at a final concentration of 1 nM for 10 min. Cells were lysed in a RIPA buffer consisting of 50 mM Tris pH 7.4, 1% NP-40, 0.25% sodium deoxycholate, 150 mM NaCl, 1 mM EDTA, 1 mM PMSF, 1 mM sodium vanadate, 10 mM sodium fluoride, 1 μg/mL each of pepstatin, aprotinin and leupeptin, 10 mM sodium pyrophosphate and 10 mM beta-glycerophosphate.
N = 3. See also Figure D in S1 File for time dependent loss of Rac1 membrane localization. N = 3 (B) Quantification of image intensity using Image J of 3 representative confocal images as shown in panel (A) containing 20–30 cells/field normalized to actin and untreated controls. (C) Western blot analyses of lysates from cells treated with 300 μM compound as indicated for 24 h as compared to untreated controls. […] Blots were probed for Tiam1 (200 kDa), GAPDH (37 kDa), Rac1 (20 kDa), as a loading control. (D) Quantification of image intensity using Image J. Each marker was normalized to GAPDH and untreated controls. N = 3.

Rac1 wt = Rac1 wt (Homo sapiens, UniProt P63000); assay: Dose response, BODIPY-GTP binding; details: 10 nM to 100 µM
Cdc42 wt = Cdc42 wt (Homo sapiens, UniProt P60953); assay: Dose response, BODIPY-GTP binding; details: 10 nM to 100 µM
Sequence of Cdc42 wt (P60953 whole entry): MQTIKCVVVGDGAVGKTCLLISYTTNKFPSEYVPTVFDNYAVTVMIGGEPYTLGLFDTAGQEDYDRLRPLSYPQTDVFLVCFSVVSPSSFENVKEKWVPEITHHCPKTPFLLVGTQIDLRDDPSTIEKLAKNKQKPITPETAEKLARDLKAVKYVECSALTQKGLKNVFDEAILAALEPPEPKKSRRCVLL

[5] = biological target: Cdc42Q61L activating mutant (Homo sapiens, UniProt P60953, Q61L); assay: Dose response, BODIPY-GTP binding; details: 10 nM to 100 µM; read-out: Cdc42 (act) EC50
Sequence of Cdc42Q61L activating mutant (P60953 whole entry Q61L): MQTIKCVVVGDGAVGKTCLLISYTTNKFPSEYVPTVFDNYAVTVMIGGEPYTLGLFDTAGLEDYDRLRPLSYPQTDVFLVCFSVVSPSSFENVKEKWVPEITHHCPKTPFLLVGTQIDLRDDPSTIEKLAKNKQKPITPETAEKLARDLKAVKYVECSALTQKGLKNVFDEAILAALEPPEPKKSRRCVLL

[6] = biological target: Rac1Q61L activating mutant (Homo sapiens, UniProt P63000, Q61L); assay: Dose response, BODIPY-GTP binding; details: 10 nM to 100 µM; read-out: Rac1 (act) EC50
[7] = assays performed with 0.1% DMSO

SMILES: Cc1onc(-c2ccccc2)c1-c1ccc(S(N)(=O)=O)cc1 [Valdecoxib]
- activity against the GTPases in confirmatory dose response assays (words) (Ras-related GTPases): inactive

SMILES: O=C(O)Cc1ccccc1Nc1c(Cl)cccc1Cl [Diclofenac sodium]
- Primary Screen Hit [1]: Inactive

SMILES: CC(C)Cc1ccc(C(C)C(=O)O)cc1 (stereo not drawn) [ibuprofen]
- Rac1 membrane localization [2]: did not alter

SMILES: CC(=O)Oc1ccccc1C(=O)O [Acetylsalicylic acid]
- Rac1 membrane localization [2]: did not alter

SMILES: CC(C(=O)O)c1ccc(C(=O)c2cccs2)cc1 (stereo not drawn) [Suprofen]
- Primary Screen Hit [1]: Inactive

SMILES: COc1ccc2cc([C@H](C)C(=O)O)ccc2c1 [S-naproxen]
- H-Ras wt EC50 (H-Ras wt): inactive
- H-Ras (act) EC50 (H-RasG12V): inactive
- Tiam1 membrane localization ([3]; 300 μM): only slightly reduced
- Tiam1 GEF PM localiz. ([3]; immunofluorescence quantified using ImageJ): 65%
- Rab2 EC50 (Rab2): inactive
- times less active than the R-enantiomer (Ras-related GTPases): 10–20 times
- activity against the GTPases in confirmatory dose response assays (words) (Ras-related GTPases): varying activity levels
- Rac1 membrane localization [2]: no effect
- Rac PM Localiz. [2]: 87%
- Rab7 EC50 (Rab7): inactive
- total Rac1 or Tiam1 protein levels ([4]; 300 μM, 24 h, immunoblot): did not alter
- Rac protein expression ([4]; immunoblot analysis): No change

SMILES: Cc1ccc(-c2cc(C(F)(F)F)nn2-c2ccc(S(N)(=O)=O)cc2)cc1 [Celecoxib]
- activity against the GTPases in confirmatory dose response assays (words) (Ras-related GTPases): inactive

SMILES: Cc1ccc(C(=O)c2ccc(CC(=O)O)n2C)cc1 [Tolmetin sodium salt dihydrate]
- Primary Screen Hit [1]: Inactive

SMILES: CC(C(=O)O)c1ccc(C(=O)c2ccccc2)s1 (stereo not drawn) [Tiaprofenic acid]
- Primary Screen Hit [1]: Inactive

SMILES: CC(C(=O)O)c1cccc(Oc2ccccc2)c1 (stereo not drawn) [Fenoprofen]
- Rac1 wt EC50 (Rac1 wt): Inactive
- primary screen outcome [1]: positive
- Primary Screen Hit [1]: Active
- Rac1 membrane localization [2]: did not alter

SMILES: CC(=O)Nc1ccc(O)cc1 [Acetaminophen]
- Primary Screen Hit [1]: Inactive

SMILES: CN1C(C(=O)Nc2ccccn2)=C(O)c2ccccc2S1(=O)=O [Piroxicam]
- Primary Screen Hit [1]: Inactive

SMILES: CC(C)Cc1ccc([C@H](C)C(=O)O)cc1 [S-(+)-Ibuprofen, (S)-(+)-Ibuprofen]
- H-Ras wt EC50 (H-Ras wt): inactive
- H-Ras (act) EC50 (H-RasG12V): inactive
- primary screen outcome [1]: positive
- Primary Screen Hit [1]: Active
- Cdc42 wt EC50 (Cdc42 wt): inactive
- Rac PM Localiz. [2, 7]: 78%
- EC50 [5]: 6.41 µM

SMILES: Cc1c(Cl)cccc1Nc1ccccc1C(=O)O [Tolfenamic acid]
- Primary Screen Hit [1]: Inactive

SMILES: CC(C(=O)O)c1cccc(C(=O)c2ccccc2)c1 (stereo not drawn) [Ketoprofen]
- Rac1 membrane localization [2]: did not alter
- Rac PM Localiz. [2, 7]: 45%

SMILES: O=C(O)c1cc(-c2ccc(F)cc2F)ccc1O [Diflunisal]
- Primary Screen Hit [1]: Inactive

SMILES: CC1=C(CC(=O)O)c2cc(F)ccc2/C1=C\c1ccc([S+](C)[O-])cc1 (stereo not drawn) [Sulindac]
- Primary Screen Hit [1]: Inactive

SMILES: CSc1ccc(/C=C2/C(C)=C(CC(=O)O)c3cc(F)ccc32)cc1 [Sulindac sulfide]
- EC50 (Rac1 wt): 54 µM
- H-Ras wt EC50 (H-Ras wt): inactive
- H-Ras (act) EC50 (H-RasG12V): inactive
- EC50 (Cdc42 wt): > 100 µM
- EC50 [6]: 53 µM
- Rab2 EC50 (Rab2): inactive
- activity against the GTPases in confirmatory dose response assays (words) (Ras-related GTPases): varying activity levels
- Rab7 EC50 (Rab7): inactive
- EC50 [5]: 48.6 µM

SMILES: CC(=O)Oc1ccccc1C(=O)Oc1ccccc1C(=O)O [Acetylsalicylsalicylic acid]
- Primary Screen Hit [1]: Inactive

— paper PMC4641600, “Novel Activities of Select NSAID R-Enantiomers against Rac1 and Cdc42 GTPases” (PLoS ONE, 2015)
